Results published in PMC3030600, “Characterizing Ligand-Gated Ion Channel Receptors with Genetically Encoded Ca^++ Sensors” (PLoS ONE, 2011).
Read-outs that look alike come from different tables or passages of the source.

Experiments:
[1] = target: α7-nAChR (Homo sapiens, UniProt P36544); conditions: read-out: EC50, α7-nAChR (non-CNiFER); potential-sensitive dye, human receptors
[2] = target: human α7 nicotinic acetylcholine receptors (Homo sapiens, UniProt P36544); assay: cell-based; format: cell-based
[3] = system: α7/5-HT3A; conditions: cited from earlier work; for EC50: Ca2+ dye (Fluo-3-AM) on HEK293 cells expressing human receptors, read-out: EC50, α7/5-HT3A (non-CNiFER)
[4] = target: T1, mouse 5-HT3A serotonin receptors (Mus musculus, UniProt P23979); assay: 5-HT3A CNiFER FRET Flex assay; format: cell-based; conditions: for mode of antagonism / Schild Slope: vs 5-HT; for Schild Slope: in aCSF
T1 sequence (P23979 24-489): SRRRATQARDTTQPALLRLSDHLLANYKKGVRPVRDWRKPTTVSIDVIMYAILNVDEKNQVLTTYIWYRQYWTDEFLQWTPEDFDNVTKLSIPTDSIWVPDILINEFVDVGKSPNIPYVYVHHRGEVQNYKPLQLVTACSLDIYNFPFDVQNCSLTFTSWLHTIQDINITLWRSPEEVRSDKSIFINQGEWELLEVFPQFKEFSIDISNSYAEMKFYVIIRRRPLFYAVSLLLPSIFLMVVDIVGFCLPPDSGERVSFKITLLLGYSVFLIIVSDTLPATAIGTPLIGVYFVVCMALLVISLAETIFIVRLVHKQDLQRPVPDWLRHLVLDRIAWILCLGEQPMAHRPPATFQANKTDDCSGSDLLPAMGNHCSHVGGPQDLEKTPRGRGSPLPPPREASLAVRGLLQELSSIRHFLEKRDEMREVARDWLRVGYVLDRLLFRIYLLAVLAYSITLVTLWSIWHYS
Protocol: Cells were cultured in 10 cm plates with DMEM (Mediatech, Manassas, VA) supplemented with 10% FBS (Gemini Bio-Products, West Sacramento, CA; Atlanta Biologicals, Lawrenceville, GA) and 1% Glutamine (Invitrogen), and incubated at 37°C with 10% CO2. Cells were selected at ∼70% confluency and plated the day before using 100 µl volumes per well into black, transparent flat-bottom, TC treated 96-well plates (Thermo, Waltham, MA; E&K, Greiner Campbell, CA). Plates were removed from the incubator the next day and the media was replaced with 100 µl of artificial cerebral spinal fluid (aCSF) [containing 121 mM NaCl, 2.4 mM Ca^2+, 1.3 mM Mg^2+, 5 mM KCl, 26 mM NaHCO3, 1.2 mM Na2HPO4, 10 mM glucose, 5 mM Hepes Na^+, pH 7.4]. For all assays performed on α7-nAChR CNiFERs 10 µM of the PAM, PNU-120596 (Tocris, Ellisville, MO), was prepared in aCSF. In the case of antagonist measurements, antagonists, at 1.5 times the final desired concentration, were prepared in aCSF. For non-CNiFER cell lines, Blue Membrane Potential dye (Molecular Devices, Sunnyvale, CA) was prepared in aCSF and diluted 2 fold the recommended dilution. Plates were incubated for at least 30 min at 37°C and 10% CO2 for any assay that included antagonist, dye, or PAM modification to the aCSF. Following incubation, plates were removed and placed into the Molecular Devices FlexStation III instrument and run at 37°C. Injection rates varied between […], and 50 µl of the specified agonist prepared at 3x final concentration in the aforementioned aCSF solution was injected after 30 s of baseline measurement. […] All wells were replicated (two or three times) in the same plate. Mean peak FRET ratios calculated from replicates were exported and plotted against agonist concentrations using Graphpad Prism 4 (Carlsbad, CA). A sigmoidal concentration-response (variable slope) regression of the mean peak FRET ratios was fit to generate a concentration-response curve and obtain an EC50 value.
To measure potencies of competitive antagonists, three concentration-response curves with different antagonist concentrations were compared to a control curve (without antagonist). Mean FRET responses generated concentration response curves, and antagonist dependent shifts in EC50 values were used to calculate dose ratios (DR), as a concentration ratio of EC50'/EC50 for the specified agonist (where EC50' is in the presence of the antagonist at the specified concentration). DRs were used to produce a Schild regression plot for analysis of competitive antagonism and generate a Ka value. Analysis consisted of potting Log (DR-1) against –Log [Antagonist]. The Schild Ka value for competitive antagonists was calculated from the x-intercept at y = 0, as the –Log (Ka), [38]. All errors reported are arithmetic standard deviations unless otherwise noted.

[5] = system: α7-nAChR; conditions: cited from earlier work

human α7 nicotinic acetylcholine receptors, sequence (P36544 23-502): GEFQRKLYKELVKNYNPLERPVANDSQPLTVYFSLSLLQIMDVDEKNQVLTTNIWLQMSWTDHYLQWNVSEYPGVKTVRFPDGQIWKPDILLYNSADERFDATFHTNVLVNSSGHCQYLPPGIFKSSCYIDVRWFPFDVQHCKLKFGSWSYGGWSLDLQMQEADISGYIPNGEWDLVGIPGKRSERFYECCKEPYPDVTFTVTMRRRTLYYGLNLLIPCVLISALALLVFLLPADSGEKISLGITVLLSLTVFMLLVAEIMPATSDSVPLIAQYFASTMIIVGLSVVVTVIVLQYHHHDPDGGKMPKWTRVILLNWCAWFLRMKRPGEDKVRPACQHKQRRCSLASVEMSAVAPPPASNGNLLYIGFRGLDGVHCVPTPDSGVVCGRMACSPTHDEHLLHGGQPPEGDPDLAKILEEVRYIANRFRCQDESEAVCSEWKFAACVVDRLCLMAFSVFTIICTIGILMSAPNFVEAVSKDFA
α7-nAChR (Homo sapiens, UniProt P36544), sequence (P36544 23-502): as above

`Clc1ccc(C2CC3CCC2N3)cn1` (racemic) [(±)-Epibatidine, (±)-epibatidine] gave an EC50 [1] of 17 ± 2.6 nM, an EC50 ([2]; read-out: EC50, α7-nAChR CNiFER) of 28 nM and an EC50 ([2]; read-out: EC50 of agonist curve) of 3.6 nM. The EC50 [3] was 180 ± 20 nM.

In the case of `NCCc1c[nH]c2ccc(O)cc12` [5-HT, 5-Hydroxytryptamine], the Hill coefficient ([4]; 5-HT3A CNiFER concentration-response (Figure 6A)) is reported as 2.6.

For `CCN1C[C@]2(COC(=O)c3ccccc3N3C(=O)C[C@H](C)C3=O)CC[C@H](OC)[C@@]34[C@@H]5C[C@H]6[C@H](OC)[C@@H]5[C@](O)(C[C@@H]6OC)[C@@](O)([C@@H](OC)[C@H]23)[C@@H]14` [MLA, methyllycaconitine], the “half time for dissociation” value [5] is given as 2.3 min, the Kd [2] is given as 3.2 nM and the “Schild Slope” value [2] is given as −1.2±0.3. For the same compound, the “mode of antagonism (Schild analysis)” value [2] was “competitively” and the IC50 ([3]; read-out: IC50 (non-CNiFER)) was 36 ± 13 nM.

In the case of `Cc1nccn1CC1CCc2c(c3ccccc3n2C)C1=O` (stereo not shown) [Ondansetron, ondansetron], the Kd ([4]; read-out: CNiFER Ka (Schild)) is reported as 1.6 ± 0.9 nM, the mode of antagonism [4] is reported as “near competitive block” and the “Schild Slope” value [4] is reported as −1.3±0.04. For the same compound, the “Schild Slope” value ([4]; listed as ondansetron) was -1.3±0.04.

With `CN1[C@@H]2CC[C@H]1C[C@@H](OC(=O)c1c[nH]c3ccccc13)C2` [tropisetron] the mode of antagonism [4] was “greater non-competitive component”.

For (−)-Nicotine, the EC50 [3] is listed as 19100 nM.
